In general, IC50 refers to the concentration needed to halve the response being measured. As a reminder, the AUC is concentration integrated over time. As a reminder, the Cmax is the maximum level reached in the sampled fluid or tissue.

From publication PMC5340622 (Cancer discovery, 2016) come the findings set out here.

The subject of data set [1] is MCF7 inducible HA-ER WT tumors. In words: MCF7 inducible HA-ER WT xenograft. It is filed as in vivo, mice. The conditions noted are these: fulvestrant 200mg/kg twice weekly s.c.
In data set [2] the test system is MCF7 WT cells. The data set is described as follows: Proliferation assay. The data set is classed as cell-based. To be noted: Homo sapiens, MCF7, read-out: IC50, growth inhibition.
Data set [3] relates to E380Q mutant ER. The data set is described as follows: ERE-luciferase inhibition, doxycycline-induced E380Q ER in MCF7 cells. It is filed as cell-based. The conditions noted are these: MCF7, regular medium.
The subject of data set [4] is MCF7 inducible HA-ER E380Q tumors. The data set is described as follows: MCF7 inducible HA-ER E380Q xenograft. It is filed as in vivo, mice. The conditions noted are these: fulvestrant 200mg/kg twice weekly s.c.
For data set [5], the system named is S463P mutant ER. The data set is described as follows: ERE-luciferase inhibition, doxycycline-induced S463P ER in MCF7 cells. It is filed as cell-based. The conditions noted are these: MCF7, regular medium.
Data set [6] is described as follows: in vivo. To be noted: mouse, serum, other: AZD9496 oral (gavage); fulvestrant subcutaneous.
The subject of data set [7] is MCF7 inducible HA-ER S463P tumors. In words: MCF7 inducible HA-ER S463P xenograft. The data set is classed as in vivo, mice. The conditions noted are these: fulvestrant 200mg/kg twice weekly s.c.
Data set [8] relates to WT and mutant cell lines (MCF7). In words: Proliferation of WT and mutant ER MCF7 cell lines with other SERDs. The conditions noted are these: WT and all mutant cell lines. The data set is classed as cell-based.

Molecules are shown by their SMILES.

On to `C[C@]12CC[C@@H]3c4ccc(O)cc4C[C@@H](CCCCCCCCC[S+]([O-])CCCC(F)(F)C(F)(F)F)[C@H]3[C@@H]1CC[C@@H]2O` (some centres unmarked) [fulvestrant], for which the tumor growth inhibition entry in data set [1], in data set [4] and in data set [7] was “fully inhibited the growth” throughout. Also, the IC50 in data set [2] was 0.4 nM. Further, the “fold higher IC99 as compared to WT” value in data set [3] and in data set [5] was 2 fold each time. The compound also returned an AUC in data set [6] of 5.29 µM·h. For the same compound, in data set [6], the concentration peaked (Cmax) at 0.65 µM.
Regarding `C[C@]12C[C@H](c3ccc(OCCCCCS(=O)(=O)CCCC(F)(F)C(F)(F)F)cc3)[C@@H]3c4ccc(O)cc4CC[C@H]3[C@@H]1CC[C@@H]2O` [RU58668], the “inhibition of cell proliferation” value in data set [8] was “capable of inhibiting cell proliferation by all mutants”.
Turning to `C[C@@H]1Cc2c([nH]c3ccccc23)[C@@H](c2c(F)cc(/C=C/C(=O)O)cc2F)N1CC(C)(C)F` [AZD9496, (E)-3-(3,5-Difluoro-4-((1R,3R)-2-(2-fluoro-2-methylpropyl)-3-methyl-2,3,4,9-tetra hydro-1H–pyrido[3,4-b]indol-1-yl)phenyl)acrylic Acid], in data set [2], the IC50 worked out at 0.4 nM. In addition, the “inhibition of cell proliferation” value in data set [8] is “capable of inhibiting cell proliferation by all mutants”. In data set [6], this compound gave an AUC of 218 µM·h and a Cmax of 59 µM.
In the case of `CC/C(=C(/c1ccc(/C=C/C(=O)O)cc1)c1ccc2[nH]ncc2c1)c1ccc(F)cc1Cl` [GDC-0810], in data set [8], the “inhibition of cell proliferation” value is reported as “capable of inhibiting cell proliferation by all mutants”.
